PubChem BioAssay (NCI)
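A five-concentration, 48-hour dose response in 96-well plates underlies each endpoint, interpolated linearly between surrounding concentrations. TGI denotes the concentration required for complete inhibition of growth.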

Key:
Assay in all cases: inhibition of tumour cell growth, NCI panel, 48 h
SW-620 colon = test system: SW-620 colon
A498 renal = test system: A498 renal
CCRF-CEM leukemia = test system: CCRF-CEM leukemia
SF-268 CNS = test system: SF-268 CNS
SF-295 CNS = test system: SF-295 CNS
M14 melanoma = test system: M14 melanoma
UACC-62 melanoma = test system: UACC-62 melanoma
ACHN renal = test system: ACHN renal
K-562 leukemia = test system: K-562 leukemia
MDA-N = test system: MDA-N
SF-539 CNS = test system: SF-539 CNS
SK-OV-3 ovarian = test system: SK-OV-3 ovarian
MOLT-4 leukemia = test system: MOLT-4 leukemia
HCT-15 colon = test system: HCT-15 colon
UO-31 renal = test system: UO-31 renal
SR leukemia = test system: SR leukemia
PC-3 prostate = test system: PC-3 prostate
SK-MEL-2 melanoma = test system: SK-MEL-2 melanoma
COLO 205 colon = test system: COLO 205 colon
MDA-MB-435 = test system: MDA-MB-435
T-47D breast = test system: T-47D breast
NCI-H23 lung = test system: NCI-H23 lung
SNB-19 CNS = test system: SNB-19 CNS
MCF7 breast = test system: MCF7 breast
RPMI-8226 leukemia = test system: RPMI-8226 leukemia
OVCAR-4 ovarian = test system: OVCAR-4 ovarian
A549 NSCLC = test system: A549 NSCLC
DU-145 prostate = test system: DU-145 prostate
SK-MEL-28 melanoma = test system: SK-MEL-28 melanoma
BT-549 breast = test system: BT-549 breast
MALME-3M melanoma = test system: MALME-3M melanoma
U251 CNS = test system: U251 CNS
HCT-116 colon = test system: HCT-116 colon
MDA-MB-231 breast = test system: MDA-MB-231 breast
SN12C renal = test system: SN12C renal
KM12 colon = test system: KM12 colon
SNB-75 CNS = test system: SNB-75 CNS
SK-MEL-5 melanoma = test system: SK-MEL-5 melanoma
EKVX NSCLC = test system: EKVX NSCLC
NCI-H522 lung = test system: NCI-H522 lung
IGROV1 ovarian = test system: IGROV1 ovarian
UACC-257 melanoma = test system: UACC-257 melanoma
HL-60(TB) leukemia = test system: HL-60(TB) leukemia
HOP-92 NSCLC = test system: HOP-92 NSCLC
NCI-H226 lung = test system: NCI-H226 lung
OVCAR-5 ovarian = test system: OVCAR-5 ovarian
HT29 colon = test system: HT29 colon
NCI-H460 lung = test system: NCI-H460 lung
HS 578T breast = test system: HS 578T breast
TK-10 renal = test system: TK-10 renal
RXF 393 renal = test system: RXF 393 renal
786-0 renal = test system: 786-0 renal
CAKI-1 renal = test system: CAKI-1 renal

Measured: TGI

Cc1cc(=O)[nH]c(-n2[nH]c3c(c2=O)CCCC3)n1
48.7 µM: RXF 393 renal
> 100 µM: SW-620 colon | A498 renal | CCRF-CEM leukemia | SF-268 CNS | SF-295 CNS | M14 melanoma | UACC-62 melanoma | ACHN renal | K-562 leukemia | MDA-N | SF-539 CNS | SK-OV-3 ovarian | MOLT-4 leukemia | HCT-15 colon | UO-31 renal | SR leukemia | PC-3 prostate | SK-MEL-2 melanoma | COLO 205 colon | MDA-MB-435 | T-47D breast | NCI-H23 lung | SNB-19 CNS | MCF7 breast | RPMI-8226 leukemia | OVCAR-4 ovarian | A549 NSCLC | DU-145 prostate | SK-MEL-28 melanoma | BT-549 breast | MALME-3M melanoma | U251 CNS | HCT-116 colon | MDA-MB-231 breast | SN12C renal | KM12 colon | SK-MEL-5 melanoma | EKVX NSCLC | NCI-H522 lung | IGROV1 ovarian | UACC-257 melanoma | HL-60(TB) leukemia | HOP-92 NSCLC | NCI-H226 lung | OVCAR-5 ovarian | HT29 colon | NCI-H460 lung | HS 578T breast | TK-10 renal | 786-0 renal | CAKI-1 renal
9.37 µM: SNB-75 CNS
